From PMC10376326, “Novel Acylselenourea Derivatives: Dual Molecules with Anticancer and Radical Scavenging Activity” (Antioxidants, 2023)

How the values were obtained:
[1] = DPPH radical scavenging assay; assay type: biochemical; settings: for DPPH Inhibitory%: acylselenourea analogs
Method: Different methods are available to quantify the antioxidant capacity of natural or novel molecules. Notable among these are the ABTS^•+ and DPPH^• methods, which measure the quenching efficiency in vitro for known concentrations of preformed radicals. In this work, the DPPH^• colorimetric assay was carried out. Measurements were recorded on a BioTeck PowerWave XS spectrophotometer (BioTeck Instruments, Winooski, VT, USA) and data were collected using KCJunior v.1.41. software (BioTeck Instruments, Winooski, VT, USA). Compounds with potent activity were selected to further determine their protective effect against ROS-induced cell death caused by H2O2.
DPPH colorimetric assay was performed to determine the in vitro radical scavenging activity of the acylselenourea derivatives. DPPH assay was performed as described by Svinyarov. For each acylselenourea, a stock solution of 1 mg/mL in dimethyl sulfoxide (DMSO) was made, and these solutions were used to prepare the different concentrations employed in the assay. The compounds were tested at two different concentrations (0.003 and 0.03 mg/mL). Intermediate solutions were prepared in methanol and a volume of 100 µL of each was added to each well of the plate. Then, 100 µL of DPPH^• (previously prepared at a concentration of 0.04 mg/mL in methanol and preserved in the dark) was added to the previous methanolic acylselenourea solutions. The discoloration of the purple radical to the yellow reduced form was followed at 517 nm at different time points (0, 5, 15, 30, 60, 90, and 120 min). Ascorbic acid and trolox were used as positive controls. All measurements were carried out in triplicate. Results are expressed as the percentage of the radicals scavenged, calculated using the following formula: (1) % DPPH radical scavenging=Acontrol - Asample/Acontrol × 100 where Acontrol refers to the absorbance of the negative control and Asample refers to the absorbance of the tested compounds. Results are expressed as percentage of DPPH radical scavenging ± SD.

DU-145 cells = assay: Protective effects against H2O2-induced oxidative stress in DU-145 cells (MTT); assay type: cell-based, human; settings: for Increase-fold: increase-fold of cell survival; for Cell growth inhibition (%): cells without compounds
Method: Cells were treated with the selected compounds and then oxidative damage to DU-145 cells was induced using different concentrations of H2O2 (200, 250 and 300 µM), and cell viability was assessed by the MTT method. Briefly, 2.5 × 10^4 DU-145 cells per well were added in 96-well plates. After 24 h of incubation, DMSO, 1.I, 2.I, 5.I, 7.II, 10.II, and ascorbic acid were added to each well at two different concentrations (0.0015 mg/mL and 0.0003 mg/mL) and incubated for 1 h. After that, H2O2 was added at the concentrations of 200, 250, and 300 µM, and the cells were incubated for 12 h to induce cell damage. MTT assay was used to measure cell viability. For each treatment, the mean cell viability was calculated from three independent experiments. The DMSO-treated controls were assigned with a cell viability value of 100% (Vcontrol). The results are expressed as a cell growth inhibition % caused by H2O2 and the increased fold of cell survival, as follows: • Cells without compounds, only treated with H2O2: (2) % Cell growth inhibition=Acontrol - Asample/Acontrol × 100
• Cells treated with compounds and H2O2:
(3) % Cell growth inhibition=Asample (compound) - Asample (compound+H2O2)/Acontrol × 100
(4) Increase-fold of cell survival=% cell growth inhibition (H2O2)/% cell growth inhibition (compound+ H2O2)
The standard error of the mean (SEM) was calculated in at least three independent experiments performed in quadruplicates.

[2] = test system: HTB-54 (lung) cancer cell line; assay: MTT cell viability assay, HTB-54; assay type: cell-based, human; settings: Homo sapiens, HTB-54, 48 h; for activity at 10 µM: read-out: Cell growth %, HTB-54, 10 µM, 48 h, MTT; for activity at 50 µM: read-out: Cell growth %, HTB-54, 50 µM, 48 h, MTT
Method: (§1) Cell lines were purchased from the American Type Culture Collection (ATCC). Cell lines MDA-MB-231, HTB-54, DU-145, and BEAS-2B were cultured in RPMI 1640 medium (Gibco, Thermo Fisher Scientific, Gaithersburg, MD, USA) supplemented with 10% fetal bovine serum (FBS; Gibco), 100 units/mL penicillin, and […] streptomycin (Gibco). HT-29 cell line was grown in McCoy’s 5A (Gibco), 10% FBS, 100 units/mL penicillin, and 100 μg/mL streptomycin. Cells were maintained at 37 °C and 5% CO2. The culture medium was changed every three days.
(§2) The cell viability of each compound was measured by MTT colorimetric assay. Each compound was dissolved in DMSO at a concentration of 0.01 M. Each compound was tested at two different concentrations (10 and 50 µM) in MDA-MB-231 (breast), HTB-54 (lung), DU-145 (prostate), and HT-29 (colon) human cancer cell lines. Serial dilutions were prepared with supplemented culture medium. […] IC50 and selectivity indexes (SI) were determined.
(§3) Briefly, 1 × 10^4 tumor cells per well were grown in 96-well plates for 24 h. Then, these cells were incubated for 48 h with either DMSO (control) or a different concentration of each of the tested compounds. The cell viability was determined by adding 20 μL of MTT two hours and a half before the termination point. After this time, the culture medium was removed. The resulting formazan crystals were dissolved in 50 μL of DMSO, and the absorbance was measured at 570 nm. Results are expressed as % cell growth. The data were obtained from at least three independent experiments performed in quadruplicate.

[3] = test system: MDA-MB-231 (breast) cancer cell line; assay: MTT cell viability assay, MDA-MB-231; assay type: cell-based, human; settings: Homo sapiens, MDA-MB-231, 48 h; for activity at 10 µM: read-out: Cell growth %, MDA-MB-231, 10 µM, 48 h, MTT; for activity at 50 µM: read-out: Cell growth %, MDA-MB-231, 50 µM, 48 h, MTT
Method: as §1, §2, §3

[4] = test system: DU-145 (prostate) cancer cell line; assay: MTT cell viability assay, DU-145; assay type: cell-based, human; settings: Homo sapiens, DU-145, 48 h; for activity at 10 µM: read-out: Cell growth %, DU-145, 10 µM, 48 h, MTT; for activity at 50 µM: read-out: Cell growth %, DU-145, 50 µM, 48 h, MTT
Method: as §1, §2, §3

[5] = test system: HT-29 (colon) cancer cell line; assay: MTT cell viability assay, HT-29; assay type: cell-based; settings: Homo sapiens, HT-29, 48 h, read-out: Cell growth %; for activity at 10 µM: HT-29, 10 µM; for activity at 50 µM: HT-29, 50 µM
Method: as §1, §2, §3

SMILES	inhibition ([1]; 0.003 mg/mL, 0 min)	inhibition ([1]; 0.003 mg/mL, 5 min)	inhibition ([1]; 0.003 mg/mL, 15 min)	inhibition ([1]; 0.003 mg/mL, 30 min)	inhibition ([1]; 0.003 mg/mL, 60 min)	inhibition ([1]; 0.003 mg/mL, 90 min)	inhibition ([1]; 0.003 mg/mL, 120 min)	inhibition ([1]; 0.03 mg/mL, 0 min)	inhibition ([1]; 0.03 mg/mL, 5 min)	inhibition ([1]; 0.03 mg/mL, 15 min)	inhibition ([1]; 0.03 mg/mL, 30 min)	inhibition ([1]; 0.03 mg/mL, 60 min)	inhibition ([1]; 0.03 mg/mL, 120 min)	DPPH Inhibitory% ([1]; 0.03 mg/mL, 90 min)	activity at 10 µM [2]	activity at 50 µM [2]	activity at 10 µM [3]	activity at 50 µM [3]	activity at 10 µM [4]	activity at 50 µM [4]	further results
O=C1O[C@H]([C@@H](O)CO)C(O)=C1O [Asc. Acid, ascorbic acid, reference compound]	33.5 ± 0.5%	33.6 ± 0.4%	34.5 ± 1.6%	34.1 ± 1.1%	34 ± 0.9%	34 ± 0.8%	34 ± 0.7%	96.4 ± 0.2%	96.4 ± 0.1%	96.9 ± 0.5%	96.9 ± 0.5%	96.6 ± 0.1%	96.6 ± 0.1%								inhibition ([1]; 0.03 mg/mL, 90 min): 96.6 ± 0.1%; Increase-fold (DU-145 cells; compound 0.0003 mg/mL, 200 µM H2O2, DU-145): 4.2 ± 0.4; Increase-fold (DU-145 cells; compound 0.0003 mg/mL, 250 µM H2O2, DU-145): 3.1 ± 0.7; Increase-fold (DU-145 cells; compound 0.0003 mg/mL, 300 µM H2O2, DU-145): 2.2 ± 0.1; Increase-fold (DU-145 cells; compound 0.0015 mg/mL, 200 µM H2O2, DU-145): 3.6 ± 0.3; Increase-fold (DU-145 cells; compound 0.0015 mg/mL, 250 µM H2O2, DU-145): 2.9 ± 0.7; Increase-fold (DU-145 cells; compound 0.0015 mg/mL, 300 µM H2O2, DU-145): 1.5 ± 0.2
C#CCNC(=[Se])NC(=O)c1ccco1 [Compound 1.III, N-(prop-2-in-1-ylcarbamoselenoyl)furan-2-carboxamide]	1.5 ± 0.7%	3.4 ± 0.6%	4.9 ± 0.7%	6.5 ± 0.7%	8.5 ± 1%	9.6 ± 0.9%	10 ± 0.8%	11.8 ± 1.7%	15.2 ± 4.4%	23.5 ± 3.9%	31.2 ± 3.7%	40.9 ± 4.3%	48.1 ± 0.4%	42.6 ± 0.6%	76 ± 4.8%	48 ± 4.2%	66.3 ± 16.7%	17.6 ± 9.3%	42.4 ± 4.8%	15.2 ± 1.2%	activity at 10 µM [5]: 84 ± 16.8%; activity at 50 µM [5]: 17.2 ± 4.2%
C=CCNC(=[Se])NC(=O)c1cccs1 [Compound 2.II, N-(allylcarbamoselenoyl)thiophene-2-carboxamide]	0%	6.4 ± 1.1%	10.4 ± 1.2%	13 ± 1.2%	15.2 ± 1.2%	16 ± 1.2%	16.3 ± 1.2%	24.4 ± 3%	60.7 ± 2.5%	75.8 ± 3.5%	87.6 ± 4%	96.7 ± 0.7%		97.3 ± 0.8%	35.9 ± 12.1%	8.52 ± 4.8%	79.9 ± 9.6%	11.1 ± 5.9%	63.4 ± 5.6%	7.33 ± 4.6%	time to reach the highest DPPH inhibition ([1]; 0.03 mg/mL): 60 min; activity at 10 µM [5]: 107 ± 16.2%; activity at 50 µM [5]: 26.2 ± 5.1%
C=CCNC(=[Se])NC(=O)c1ccccc1 [Compound 5.II, N-(allylcarbamoselenoyl)benzamide]	1.3 ± 1.7%	4.5 ± 1.7%	7.5 ± 1.7%	10.4 ± 1.8%	13.9 ± 1.9%	16.2 ± 2%	17.8 ± 2.1%	13.5 ± 1.3%	42.4 ± 1.5%	62.7 ± 0.8%	80.2 ± 1.1%	97.2 ± 0.7%	97.7 ± 1%	97.4 ± 0.8%	67.6 ± 14.9%	16.9 ± 4.1%	80.4 ± 8.4%	15.6 ± 6%	97.5 ± 18.5%	10.3 ± 4.9%	time to reach the highest DPPH inhibition ([1]; 0.03 mg/mL): 60 min; activity at 10 µM [5]: 100 ± 16.6%; activity at 50 µM [5]: 23.9 ± 5%
C#CCNC(=[Se])NC(=O)c1ccccc1 [Compound 5.III, N-(prop-2-in-1-ylcarbamoselenoyl)benzamide]	0.6 ± 1.2%	2.9 ± 1%	5.1 ± 1.3%	7.2 ± 1.6%		11.3 ± 2%	12.3 ± 2.1%	9.3 ± 1%	9.8 ± 0.3%	23 ± 0.3%	34 ± 0.6%	46.6 ± 0.9%	60.2 ± 0.7%	54.6 ± 0.8%	76 ± 4.8%	33.4 ± 8.6%	78.5 ± 12%	33.3 ± 6.5%	80.8 ± 7.4%	26.3 ± 6.5%	activity at 10 µM [5]: 70 ± 8.7%; activity at 50 µM [5]: 33.9 ± 4.5%
OO [Compound H2O2, H2O2, reference compound]																					Cell growth inhibition (%) (DU-145 cells; only treated with 200 µM H2O2, DU-145, 12 h): 36.9 ± 6.9%; Cell growth inhibition (%) (DU-145 cells; only treated with 250 µM H2O2, DU-145, 12 h): 53.4 ± 6.1%; Cell growth inhibition (%) (DU-145 cells; only treated with 300 µM H2O2, DU-145, 12 h): 66.8 ± 6.3%
Cc1c(C)c2c(c(C)c1O)CCC(C)(C(=O)O)O2 (centres unmarked) [Trolox, trolox, reference compound]	28.4 ± 1%	29.2 ± 1%	29.2 ± 0.9%	29.2 ± 0.8%	29.2 ± 0.8%	29.2%	29.1%	90.8 ± 2.3%	96.3 ± 0.1%	96.3 ± 0.2%	96.3 ± 0.2%	96.2 ± 0.2%	96.2 ± 0.2%								inhibition ([1]; 0.03 mg/mL, 90 min): 96.2 ± 0.2%
